# Activity calls are given as the source filed them. No cut-off for these calls is given here.
# Experiments:
# [1] = (§1) Cytotoxicity against human HuH7 cells assessed as reduction in cell viability after 3 days by calcein-AM dye based fluorescence assay; set-up: species or system Huh-7; conditions: Huh-7 cells
# [2] = test system: Hepatitis C virus; experiment: Antiviral activity against Hepatitis C virus genotype 1b infected in human HuH7 cells preincubated with cells for 3 days followed by viral infection by luciferase assay; assay type: functional, cell-based, Hepacivirus hominis
# [3] = Cytotoxicity against human MT4 cells assessed as reduction in cell viability after 4 to 5 days by Cell-Titer Glo assay; assay type: cell-based; conditions: MT4 cells
# [4] = Cytotoxicity against human Hep2 cells assessed as reduction in cell viability after 4 to 5 days by Cell-Titer Glo assay; assay type: cell-based, HEp-2; conditions: HEp-2 cells
# [5] = test system: Human orthopneumovirus; experiment: Antiviral activity against Respiratory syncytial virus A2 infected in human Hep2 cells assessed as reduction of virus-induced cytopathic effect after 4 days by Cell-Titer Glo assay; assay type: functional, cell-based; conditions: human respiratory syncytial virus, A2, HEp-2, 96 h
# [6] = test system: Ebolavirus; experiment: Antiviral activity against GFP-fused Ebolavirus infected in TERT-immortalized HMVEC assessed as reduction in viral replication preincubated with cells followed by viral infection measured after 3 to 4 days by fluorescence assay; assay type: functional
# [7] = test system: Ebolavirus; experiment: Antiviral activity against Ebolavirus Kikwit infected in human HeLa cells assessed as reduction in viral glycoprotein levels preincubated with cells for 2 hrs followed by viral infection measured after 48 hrs by immunostaining based assay; assay type: functional, cell-based; conditions: Orthoebolavirus, Kikwit, HeLa
# [8] = test system: Ebolavirus; experiment: Antiviral activity against Ebolavirus in phase-1 acute meningoencephalytis patient assessed as viral clearance in CNS at 150 mg, iv qd administered daily for 2 days followed by 225 mg for 14 days; assay type: functional, organism-based
# [9] = test system: Ebolavirus; experiment: Antiviral activity against Ebolavirus infected in newborn infant assessed as viral clearance; assay type: functional
# [10] = test system: Ebolavirus; experiment: Antiviral activity against Ebolavirus infected in rhesus monkey assessed as reduction in systemic viremia at 3 mg/kg, iv qd administered continuously starting from day 2 post infection for 12 days; assay type: functional, organism-based
# [11] = test system: Ebolavirus; experiment: Antiviral activity against Ebolavirus infected in rhesus monkey assessed as increase in survival at 10 mg/kg, iv administered daily starting from day 3 post infection followed by 3 mg/kg for 11 days measured up to 28 days; assay type: functional, organism-based
# [12] = test system: Ebolavirus; experiment: Antiviral activity against Ebolavirus in phase-1 acute meningoencephalytis patient assessed as viral clearance in plasma at 150 mg, iv qd administered daily for 2 days followed by 225 mg for 14 days; assay type: functional, organism-based
# [13] = Lipophilicity, log D of the compound after 30 mins by HPLC/UV method; assay type: physicochemical
# [14] = (§2) Half life in human plasma at 2 uM by LC/MS/MS analysis; assay type: ADME, cell-free
# [15] = test system: Ebolavirus; experiment: Antiviral activity against Ebolavirus Kikwit infected in human macrophages preincubated with cells for 2 hrs followed by viral infection measured after 48 hrs; assay type: functional; conditions: Orthoebolavirus, Kikwit
# [16] = test system: Huh-7; experiment: as §1; conditions: huh-7, 72 h, 72 h
# [17] = test system: Plasma; experiment: as §2; assay type: ADME, cell-free; conditions: 2 µM
# [18] = Hepatitis C virus, genotype 1b, Huh-7
structure (smiles),measurement,setting,value
C[C@@]1(c2ccc3c(N)ncnn23)O[C@H](CO)[C@@H](O)[C@H]1O,CC50 at 72 h,[1],62 µM
same,EC50,[2]; [18],38 µM
same,CC50,[3],4.5 µM
same,CC50,[4],93 µM
same,EC50,[5],5.5 µM
same,EC50,"[6]; Orthoebolavirus, HMVEC",> 10 µM
N#C[C@@]1(c2ccc3c(N)ncnn23)O[C@H](CO)[C@@H](O)[C@H]1F,CC50 at 72 h,[1],> 44 µM
same,EC50,[2]; [18],> 44 µM
same,CC50,[3],32 µM
same,EC50,[5],> 100 µM
C[C@@]1(O)[C@H](O)[C@@H](CO)O[C@@]1(C#N)c1ccc2c(N)ncnn12,EC50,[7],50 µM
same,CC50 at 72 h,[1],> 44 µM
same,EC50,[2]; [18],> 44 µM
same,CC50,[3],> 57 µM
same,CC50,[4],> 100 µM
same,EC50,[5],> 100 µM
same,EC50,"[6]; Orthoebolavirus, HMVEC",> 10 µM
CCC(CC)COC(=O)[C@H](C)N[P@](=O)(OC[C@H]1O[C@@](C#N)(c2ccc3c(N)ncnn23)[C@H](O)[C@@H]1O)Oc1ccccc1,Activity,[8],Active
same,Activity,[9],Active
same,Activity,[10],Active
same,Activity,[11],Active
same,Activity,[12],Active
C[C@H](NP(=O)(OC[C@H]1O[C@@](C#N)(c2ccc3c(N)ncnn23)[C@H](O)[C@@H]1O)Oc1ccccc1)C(=O)OC1CCC1 (stereo not given in full),EC50,[7],0.42 µM
same,logD at 0.5 h,[13],1.1
same,CC50,[3],6 µM
same,half-life at 2 µM,[14],13.6 h
same,EC50,"[6]; Orthoebolavirus, HMVEC",0.088 µM
CCOC(=O)[C@H](C)NP(=O)(N[C@@H](C)C(=O)OCC)OC[C@H]1O[C@@](C#N)(c2ccc3c(N)ncnn23)[C@H](O)[C@@H]1O,EC50,[7],20.4 µM
same,logD at 0.5 h,[13],< 0.3
same,CC50,[3],> 53 µM
same,EC50,"[6]; Orthoebolavirus, HMVEC",9.1 µM
N#C[C@@]1(n2ccc(N)nc2=O)O[C@H](CO)[C@@H](O)[C@H]1O,EC50,[7],> 50 µM
same,CC50 at 72 h,[1],> 44 µM
same,EC50,[2]; [18],12 µM
same,CC50,[3],> 57 µM
same,CC50,[4],> 100 µM
same,EC50,[5],7.3 µM
same,EC50,"[6]; Orthoebolavirus, HMVEC",> 10 µM
N#C[C@@]1(c2ccc3c(N)ncnn23)O[C@H](CO)[C@@H](O)[C@H]1O [GS-441524],EC50,[7],> 20 µM
same,logD at 0.5 h,[13],0.3
same,EC50,[15],> 20 µM
same,CC50 at 72 h,[1],> 88 µM
same,CC50,[3],> 57 µM
same,CC50,[4],> 100 µM
same,EC50,[5],0.53 µM
same,EC50,"[6]; Orthoebolavirus, HMVEC",0.78 µM
CC(C)OC(=O)[C@H](C)N[P@](=O)(OC[C@H]1O[C@@](C#N)(c2ccc3c(N)ncnn23)[C@](C)(O)[C@@H]1OC(=O)C(C)C)Oc1ccccc1 [GS-6620],EC50,[7],> 20 µM
same,CC50 at 72 h,[1],51 µM
same,EC50,[2]; [18],0.31 µM
same,CC50,[3],7.8 µM
same,CC50,[4],95 µM
same,EC50,[5],> 20 µM
same,EC50,"[6]; Orthoebolavirus, HMVEC",40 µM
CCOC(=O)[C@H](Cc1ccccc1)NP(=O)(OC[C@H]1O[C@@](C#N)(c2ccc3c(N)ncnn23)[C@H](O)[C@@H]1O)Oc1ccccc1 (stereo not given in full),EC50,[7],4.38 µM
same,logD at 0.5 h,[13],1.6
same,EC50,[15],0.27 µM
same,CC50,[3],15 µM
same,half-life at 2 µM,[14],26.4 h
same,EC50,"[6]; Orthoebolavirus, HMVEC",0.587 µM
CCC(CC)COC(=O)[C@H](C)NP(=O)(OC[C@H]1O[C@@](C#N)(c2ccc3c(N)ncnn23)[C@](C)(O)[C@@H]1O)Oc1ccccc1 (stereo not given in full),EC50,[7],27 µM
same,CC50 at 72 h,[1],> 44 µM
same,EC50,[2]; [18],0.37 µM
same,CC50,[3],1.4 µM
same,CC50,[4],> 50 µM
same,EC50,[5],> 50 µM
same,EC50,"[6]; Orthoebolavirus, HMVEC",13 µM
CCC(CC)COC(=O)[C@@H](C)NP(=O)(OC[C@H]1O[C@@](C#N)(c2ccc3c(N)ncnn23)[C@H](O)[C@@H]1O)Oc1ccccc1 (stereo not given in full),EC50,[7],0.55 µM
same,logD at 0.5 h,[13],2.1
same,EC50,[15],0.729 µM
same,CC50,[3],42 µM
same,half-life at 2 µM,[14],26.4 h
same,EC50,"[6]; Orthoebolavirus, HMVEC",0.518 µM
Nc1ncnn2c([C@@H]3O[C@H](CO)[C@@H](O)[C@H]3O)ccc12,CC50 at 72 h,[1],0.15 µM
same,EC50,[2]; [18],0.0035 µM
same,CC50,[3],< 0.01 µM
same,CC50,[4],0.038 µM
CCC(CC)COC(=O)[C@H](C)N[P@@](=O)(OC[C@H]1O[C@@](C#N)(c2ccc3c(N)ncnn23)[C@H](O)[C@@H]1O)Oc1ccccc1,EC50,[7],0.08 µM
same,logD at 0.5 h,[13],2
same,EC50,[15],0.111 µM
same,EC50,"[6]; Orthoebolavirus, HMVEC",0.053 µM
C[C@H](NP(=O)(OC[C@H]1O[C@@](C#N)(c2ccc3c(N)ncnn23)[C@H](O)[C@@H]1O)Oc1ccccc1)C(=O)OC(C)(C)C (stereo not given in full),EC50,[7],30.4 µM
same,logD at 0.5 h,[13],1.3
same,CC50,[3],> 100 µM
same,half-life at 2 µM,[14],26.4 h
same,EC50,"[6]; Orthoebolavirus, HMVEC",3.79 µM
CC(C)OC(=O)[C@H](C)N[P@@](=O)(OC[C@H]1O[C@@](C#N)(c2ccc3c(N)ncnn23)[C@H](O)[C@@H]1O)Oc1ccccc1,EC50,[7],1.84 µM
same,logD at 0.5 h,[13],1.1
same,EC50,[15],0.297 µM
same,CC50,[3],21 µM
same,half-life at 2 µM,[14],26 h
same,EC50,"[6]; Orthoebolavirus, HMVEC",0.367 µM
C[C@H](NP(=O)(OC[C@H]1O[C@@](C#N)(c2ccc3c(N)ncnn23)[C@H](O)[C@@H]1O)Oc1ccccc1)C(=O)OC1CCCC1 (stereo not given in full),EC50,[7],0.633 µM
same,logD at 0.5 h,[13],1.3
same,EC50,[15],0.12 µM
same,CC50,[3],8.8 µM
same,half-life at 2 µM,[14],26.3 h
same,EC50,"[6]; Orthoebolavirus, HMVEC",0.16 µM
C#C[C@@]1(c2ccc3c(N)ncnn23)O[C@H](CO)[C@@H](O)[C@H]1O,CC50 at 72 h,[1],> 88 µM
same,EC50,[2]; [18],> 88 µM
same,CC50,[3],120 µM
same,CC50,[4],> 200 µM
same,EC50,[5],> 200 µM
CCOC(=O)[C@@H](NP(=O)(OC[C@H]1O[C@@](C#N)(c2ccc3c(N)ncnn23)[C@H](O)[C@@H]1O)Oc1ccccc1)C(C)C (stereo not given in full),EC50,[7],7.04 µM
same,logD at 0.5 h,[13],1.2
same,CC50,[3],> 100 µM
same,half-life at 2 µM,[14],26.4 h
same,EC50,"[6]; Orthoebolavirus, HMVEC",3.15 µM
N#C[C@@]1(n2cnc3c(N)ncnc32)O[C@H](CO)[C@@H](O)[C@H]1O,CC50 at 72 h,[1],> 88 µM
same,EC50,[2]; [18],> 44 µM
same,CC50,[3],> 53 µM
same,CC50,[4],> 100 µM
same,EC50,[5],> 100 µM
same,EC50,"[6]; Orthoebolavirus, HMVEC",56 µM
C[C@H](N[P@](=O)(OC[C@H]1O[C@@](C#N)(c2ccc3c(N)ncnn23)[C@H](O)[C@@H]1O)Oc1ccccc1)C(=O)OCC(C)(C)C,EC50,[7],0.168 µM
same,logD at 0.5 h,[13],1.7
same,CC50,[3],3 µM
same,half-life at 2 µM,[14],11.7 h
same,EC50,"[6]; Orthoebolavirus, HMVEC",0.092 µM
CC(C)OC(=O)[C@H](C)NP(=O)(OC[C@H]1O[C@@](C#N)(n2ccc(N)nc2=O)[C@H](O)[C@@H]1O)Oc1ccccc1 (stereo not given in full),EC50,[7],> 20 µM
same,CC50 at 72 h,[1],> 44 µM
same,EC50,[2]; [18],2.5 µM
same,CC50,[3],53 µM
same,CC50,[4],> 100 µM
same,EC50,[5],63 µM
C#C[C@@]1(c2ccc3c(N)ncnn23)O[C@H](COP(=O)(N[C@@H](C)C(=O)OCC(CC)CC)Oc2ccccc2)[C@@H](O)[C@H]1O (stereo not given in full),CC50 at 72 h,[1],> 44 µM
same,EC50,[2]; [18],6.9 µM
same,CC50,[3],> 32 µM
same,CC50,[4],> 100 µM
same,EC50,[5],1.1 µM
same,EC50,"[6]; Orthoebolavirus, HMVEC",3.9 µM
CCOC(=O)[C@H](C)NP(=O)(OC[C@H]1O[C@@](C#N)(c2ccc3c(N)ncnn23)[C@H](O)[C@@H]1O)Oc1ccccc1 (stereo not given in full),EC50,[7],2.43 µM
same,logD at 0.5 h,[13],0.6
same,CC50,[3],13 µM
same,half-life at 2 µM,[14],26.4 h
same,EC50,"[6]; Orthoebolavirus, HMVEC",0.636 µM
CCC(CC)OC(=O)[C@H](C)NP(=O)(OC[C@H]1O[C@@](C#N)(c2ccc3c(N)ncnn23)[C@H](O)[C@@H]1O)Oc1ccccc1 (stereo not given in full),EC50,[7],1.81 µM
same,logD at 0.5 h,[13],1.6
same,CC50,[3],> 100 µM
same,half-life at 2 µM,[14],14.3 h
same,EC50,"[6]; Orthoebolavirus, HMVEC",0.845 µM
CCC(CC)COC(=O)[C@H](C)N[P@](=O)(OC[C@H]1O[C@@](C#N)(c2ccc3c(N)ncnn23)[C@H](O)[C@@H]1O)Oc1ccccc1 (mixture of isomers),EC50,[7],0.17 µM
same,logD at 0.5 h,[13],2.1
same,EC50,[15],0.1 µM
same,CC50,[16],17 µM
same,EC50,[2],0.023 µM
same,CC50,[3],2 µM
same,CC50,[4],9.2 µM
same,t1/2,[17],3.25 h
same,EC50,[5],0.027 µM
same,EC50,[6],0.12 µM

# Source: ChEMBL document CHEMBL4007399, “Discovery and Synthesis of a Phosphoramidate Prodrug of a Pyrrolo[2,1-f][triazin-4-amino] Adenine C-Nucleoside (GS-5734) for the Treatment of Ebola and Emerging Viruses” (J Med Chem, 2017)
